This is an account of results in article PMC11345828 (Journal of Medicinal Chemistry, 2024).

For series [1], the system named is K562 cell line. Nature of the series: cells. The conditions noted are these: Homo sapiens, K562, read-out: K562 GI50. As for the experimental part:
(§1) NCI-H1048 were cultured in custom medium prepared by PanBioTech containing DMEM/F12 + 5% fetal calf serum, 0.005 mg/mL insulin, 0.01 mg/mL transferrin, 30 nM sodium selenite, 10 nM hydrocortisone, 10 nM β-estradiol and […] 2 mM L-glutamine.
(§2) Suspension cells were plated immediately before compound addition. Adherent cell lines were incubated overnight at 37 °C in a tissue culture incubator prior to compound addition. Compounds were added in triplicates using an HP D300e Digital Dispenser (Hewlett-Packard) or manually at the concentrations indicated and total volumes were normalized using dimethyl sulfoxide (DMSO) backfill, with final DMSO concentration of 0.5%. Control wells were treated with DMSO only.

The test system of series [2] is NCI-H929 cell line. As to the kind of experiment: cells. As to conditions: Homo sapiens, NCI-H929, read-out: NCI-H929 GI50. As for the experimental part: as §1, §2
Series [3] can be described thus: Mouse IV PK. The conditions noted are these: for AUC/Dose / CL / improvement in the mouse IV clearance from (M)-18: mouse IV; for AUC/Dose: dose normalized; for clearance: mouse, plasma, iv; for improvement in the mouse IV clearance from (M)-18: relative to (M)-18.
Procedure: (§3) For PK analysis, mice and dogs were administered intravenously with compound formulated either in 10% ethanol and 10% Cremophor EL for mice or in 50% ethanol and 50% PEG500 for dogs. Plasma samples were obtained at predefined time points and compound concentrations in plasma were measured by quantitative HPLC-MS/MS using an internal standard. Calibration and quality control samples were prepared using blank plasma from untreated animals. Samples were precipitated with acetonitrile and injected into a HPLC system (Agilent 1200). […] The HPLC was interfaced by ESI operated in positive ionization mode to a triple quadrupole mass spectrometer (6500+ Triple Quad System, SCIEX) operated in multiple reaction monitoring mode. Chromatograms were analyzed with Analyst (SCIEX) and pharmacokinetic parameters were calculated by noncompartmental analysis using proprietary software.
A short description of series [4]: Dog IV PK. The conditions noted are these: dosed at 0.9 mg/kg.
Procedure: as §3

Structures are written as SMILES. “And” between values parts separate entries of the source, which are not always exact repeats. Identical values can stand only once. Marks after values point to notes of the source that are not given here. Bounds are passed on as bounds.

For `Cc1cc(OCCCc2c3n(c4c(-c5c(C)nn(C)c5C)c(Cl)ccc24)[C@H](C)CN(c2cccc4cc(C(=O)O)n(C)c24)C3=O)cc(C)c1Cl` [Compound 10, (R)-7-(7-Chloro-10-(3-(4-chloro-3,5-dimethylphenoxy)propyl)-4-methyl-1-oxo-6-(1,3,5-trimethyl-1H-pyrazol-4-yl)-3,4-dihydropyrazino[1,2-a]indol-2(1H)-yl)-1-methyl-1H-indole-2-carboxylic Acid], the GI50 in series [1] is > 12500 nM; in series [2], 187 ± 78 nM.

For the compound `COc1cc(N2C[C@@H](C)n3c(c(CCCOc4cc(C)c(Cl)c(C)c4)c4ccc(Cl)c(-c5c(C)nn(C)c5C)c43)C2=O)c2c(cc(C(=O)O)n2C)c1OC` [Compound 18, (M,R)-7-(7-Chloro-10-(3-(4-chloro-3,5-dimethylphenoxy)propyl)-4-methyl-1-oxo-6-(1,3,5-trimethyl-1H-pyrazol-4-yl)-3,4-dihydropyrazino[1,2-a]indol-2(1H)-yl)-4,5-dimethoxy-1-methyl-1H-indole-2-carboxylic Acid], in series [3] (dosed at 25 mg/kg), the AUC/Dose is reported as 252 nM*h/mpk. In addition, the clearance in series [3] (25 mg/kg) was 70 mL/min/kg.

Take `COc1cc(N2C[C@@H](C)n3c(c(CCCOc4cc(C)c(Cl)c(C)c4)c4ccc(Cl)c(-c5c(C)ncnc5C)c43)C2=O)c2c(cc(C(=O)O)n2C)c1OC` [Compound 19, (R)-7-(7-Chloro-10-(3-(4-chloro-3,5-dimethylphenoxy)propyl)-6-(4,6-dimethylpyrimidin-5-yl)-4-methyl-1-oxo-3,4-dihydropyrazino[1,2-a]indol-2(1H)-yl)-4,5-dimethoxy-1-methyl-1H-indole-2-carboxylic Acid]: the GI50 turned out to be 7000 nM in series [1] and 32 ± 14 nM in series [2]. In series [3] (dosed at 25 mg/kg), this compound had a CL of 43 mL/min/kg. In series [3] (dosed at 25 mg/kg, 25 mg/kg), the AUC/Dose is 499 nM*h/mpk and 499^c nM*h/mpk. The “improvement in the mouse IV clearance from (M)-18” value in series [3] was 2 fold. Further, the clearance in series [3] (25 mg/kg) was 43 mL/min/kg.

As for `COc1cc(N2C[C@@H](C)n3c(c(CCCOc4cc(C)c(Cl)c(C)c4)c4ccc(Cl)c(-c5c(C)nc(C)nc5C)c43)C2=O)c2c(cc(C(=O)O)n2C)c1OC` [Compound 20, (R)-7-(7-Chloro-10-(3-(4-chloro-3,5-dimethylphenoxy)propyl)-4-methyl-1-oxo-6-(2,4,6-trimethylpyrimidin-5-yl)-3,4-dihydropyrazino[1,2-a]indol-2(1H)-yl)-4,5-dimethoxy-1-methyl-1H-indole-2-carboxylic Acid], the values for the GI50 in series [1] and in series [2] were 6800 ± 3300 nM and 33 ± 14 nM, respectively. Further, the CL in series [3] (dosed at 25 mg/kg) is 45 mL/min/kg. The AUC/Dose in series [3] (dosed at 25 mg/kg, 25 mg/kg) is 385 nM*h/mpk and 385^c nM*h/mpk. The “improvement in the mouse IV clearance from (M)-18” value in series [3] is 2 fold. In addition, in series [3] (25 mg/kg), the clearance stood at 45 mL/min/kg.

Regarding `COCCOc1cc(N2C[C@@H](C)n3c(c(CCCOc4cc(C)c(Cl)c(C)c4)c4ccc(Cl)c(-c5c(C)ncnc5C)c43)C2=O)c2c(cc(C(=O)O)n2C)c1OC` [Compound 21, (R)-7-(7-Chloro-10-(3-(4-chloro-3,5-dimethylphenoxy)propyl)-6-(4,6-dimethylpyrimidin-5-yl)-4-methyl-1-oxo-3,4-dihydropyrazino[1,2-a]indol-2(1H)-yl)-4-methoxy-5-(2-methoxyethoxy)-1-methyl-1H-indole-2-carboxylic Acid], the 50% growth inhibitory concentration (GI50) in series [1] is > 12000 nM. Besides, in series [2], the GI50 worked out at 30 ± 13 nM. Besides, in series [3] (dosed at 25 mg/kg), the CL is on record as 58 mL/min/kg and the AUC/Dose was 290^c nM*h/mpk. Further, the clearance in series [3] (25 mg/kg) was determined as 58 mL/min/kg.

As to `COc1c(OCC2CCOCC2)cc(N2C[C@@H](C)n3c(c(CCCOc4cc(C)c(Cl)c(C)c4)c4ccc(Cl)c(-c5c(C)ncnc5C)c43)C2=O)c2c1cc(C(=O)O)n2C` [Compound 22, (R)-7-(7-Chloro-10-(3-(4-chloro-3,5-dimethylphenoxy)propyl)-6-(4,6-dimethylpyrimidin-5-yl)-4-methyl-1-oxo-3,4-dihydropyrazino[1,2-a]indol-2(1H)-yl)-4-methoxy-1-methyl-5-((tetrahydro-2H-pyran-4-yl)methoxy)-1H-indole-2-carboxylic Acid], the AUC/Dose in series [3] (dosed at 20 mg/kg) is reported as 2830^d nM*h/mpk. The clearance in series [3] (20 mg/kg) and in series [3] (25 mg/kg) was 7 mL/min/kg throughout.

With `COc1c(OC[C@H]2CCCO2)cc(N2C[C@@H](C)n3c(c(CCCOc4cc(C)c(Cl)c(C)c4)c4ccc(Cl)c(-c5c(C)ncnc5C)c43)C2=O)c2c1cc(C(=O)O)n2C` [Compound 24, 7-((R)-7-Chloro-10-(3-(4-chloro-3,5-dimethylphenoxy)propyl)-6-(4,6-dimethylpyrimidin-5-yl)-4-methyl-1-oxo-3,4-dihydropyrazino[1,2-a]indol-2(1H)-yl)-4-methoxy-1-methyl-5-(((R)-tetrahydrofuran-2-yl)methoxy)-1H-indole-2-carboxylic Acid], in series [3] (dosed at 25 mg/kg), the CL is recorded as 15 mL/min/kg and the AUC/Dose is recorded as 1476^c nM*h/mpk. The clearance in series [3] (25 mg/kg) was 15 mL/min/kg.

`COc1c(OC[C@@H]2CCCO2)cc(N2C[C@@H](C)n3c(c(CCCOc4cc(C)c(Cl)c(C)c4)c4ccc(Cl)c(-c5c(C)nc(C)nc5C)c43)C2=O)c2c1cc(C(=O)O)n2C` [Compound 27, 7-((R)-7-Chloro-10-(3-(4-chloro-3,5-dimethylphenoxy)propyl)-6-(2,4,6-trimethylpyrimidin-5-yl)-4-methyl-1-oxo-3,4-dihydropyrazino[1,2-a]indol-2(1H)-yl)-4-methoxy-1-methyl-5-(((S)-tetrahydrofuran-2-yl)methoxy)-1H-indole-2-carboxylic Acid]: in series [4], the AUC/Dose worked out at 2100 nM*h/mpk, the CL is given as 8.9 mL/min/kg and the “CL (% hep blood flow)” value is on record as 29 % hep blood flow. In addition, in series [3] (dosed at 20 mg/kg), the AUC/Dose is recorded as 2190^d nM*h/mpk. Further, in series [3] (20 mg/kg), the clearance was found to be 8.9 mL/min/kg. For the same compound, the clearance in series [3] (25 mg/kg) was 8.9 mL/min/kg.

With `COc1c(OC[C@H]2CCCO2)cc(N2C[C@@H](C)n3c(c(CCCOc4cc(C)c(Cl)c(C)c4)c4ccc(Cl)c(-c5c(C)nc(C)nc5C)c43)C2=O)c2c1cc(C(=O)O)n2C` [Compound 28, 7-((R)-7-Chloro-10-(3-(4-chloro-3,5-dimethylphenoxy)propyl)-6-(2,4,6-trimethylpyrimidin-5-yl)-4-methyl-1-oxo-3,4-dihydropyrazino[1,2-a]indol-2(1H)-yl)-4-methoxy-1-methyl-5-(((R)-tetrahydrofuran-2-yl)methoxy)-1H-indole-2-carboxylic Acid], the AUC/Dose in series [3] (dosed at 20 mg/kg) was 2510^d nM*h/mpk. In addition, the clearance in series [3] (20 mg/kg) and in series [3] (25 mg/kg) was 8.4 mL/min/kg each time.

As to `COc1c(O[C@H]2CCOC2)cc(N2C[C@@H](C)n3c(c(CCCOc4cc(C)c(Cl)c(C)c4)c4ccc(Cl)c(-c5c(C)nc(C)nc5C)c43)C2=O)c2c1cc(C(=O)O)n2C` [Compound 29, 7-((R)-7-Chloro-10-(3-(4-chloro-3,5-dimethylphenoxy)propyl)-4-methyl-1-oxo-6-(2,4,6-trimethylpyrimidin-5-yl)-3,4-dihydropyrazino[1,2-a]indol-2(1H)-yl)-4-methoxy-1-methyl-5-(((S)-tetrahydrofuran-3-yl)oxy)-1H-indole-2-carboxylic Acid], the AUC/Dose in series [4] is listed as 1808 nM*h/mpk; in series [3] (dosed at 5 mg/kg), 1858^e nM*h/mpk. Besides, in series [4], the CL turned out to be 12 mL/min/kg. Besides, the “CL (% hep blood flow)” value in series [4] is 38 % hep blood flow. The clearance in series [3] (5 mg/kg) and in series [3] (25 mg/kg) was 19 mL/min/kg throughout.

Take `COc1c(O[C@@H]2CCOC2)cc(N2C[C@@H](C)n3c(c(CCCOc4cc(C)c(Cl)c(C)c4)c4ccc(Cl)c(-c5c(C)nc(C)nc5C)c43)C2=O)c2c1cc(C(=O)O)n2C` [Compound 30, 7-((R)-7-Chloro-10-(3-(4-chloro-3,5-dimethylphenoxy)propyl)-4-methyl-1-oxo-6-(2,4,6-trimethylpyrimidin-5-yl)-3,4-dihydropyrazino[1,2-a]indol-2(1H)-yl)-4-methoxy-1-methyl-5-(((R)-tetrahydrofuran-3-yl)oxy)-1H-indole-2-carboxylic Acid]: the AUC/Dose in series [3] (dosed at 20 mg/kg) is on record as 1425^d nM*h/mpk. In addition, the clearance in series [3] (20 mg/kg) and in series [3] (25 mg/kg) was 13 mL/min/kg in each case.

Take `CCOc1c(O[C@H]2CCOC2)cc(N2C[C@@H](C)n3c(c(CCCOc4cc(C)c(Cl)c(C)c4)c4ccc(Cl)c(-c5c(C)nc(C)nc5C)c43)C2=O)c2c1cc(C(=O)O)n2C` [Compound 31, 7-((R)-7-Chloro-10-(3-(4-chloro-3,5-dimethylphenoxy)propyl)-4-methyl-1-oxo-6-(2,4,6-trimethylpyrimidin-5-yl)-3,4-dihydropyrazino[1,2-a]indol-2(1H)-yl)-4-ethoxy-1-methyl-5-(((S)-tetrahydrofuran-3-yl)oxy)-1H-indole-2-carboxylic Acid]: the AUC/Dose in series [3] (dosed at 20 mg/kg) is given as 2465^d nM*h/mpk. Moreover, the clearance in series [3] (20 mg/kg) and in series [3] (25 mg/kg) was 8.7 mL/min/kg in each case.

In the case of `CCOc1c(OCC2CCOCC2)cc(N2C[C@@H](C)n3c(c(CCCOc4cc(C)c(Cl)c(C)c4)c4ccc(Cl)c(-c5c(C)nc(C)nc5C)c43)C2=O)c2c1cc(C(=O)O)n2C` [Compound 32, (R)-7-(7-Chloro-10-(3-(4-chloro-3,5-dimethylphenoxy)propyl)-4-methyl-1-oxo-6-(2,4,6-trimethylpyrimidin-5-yl)-3,4-dihydropyrazino[1,2-a]indol-2(1H)-yl)-4-ethoxy-1-methyl-5-((tetrahydro-2H-pyran-4-yl)methoxy)-1H-indole-2-carboxylic Acid], the AUC/Dose in series [3] (dosed at 20 mg/kg) was 4930^d nM*h/mpk. For the same compound, the clearance in series [3] (20 mg/kg) and in series [3] (25 mg/kg) was 3.7 mL/min/kg in each case.
